Results published in patent publication US7659270B2, “Hepatitis C virus inhibitors” (Bristol-Myers Squibb Company, priority 2006, dated 2010).

System: HCV 1b-377-neo replicon cells
Assay: HCV replicon assay (HCV 1b-377-neo replicon cells)
Assay type: cell-based, Hepatitis C virus genotype 1b
Details: Hepatitis C virus, read-out: EC50 range against HCV 1b (Range)
Description: An HCV Replion assay was utilized in the present disclosure, and was prepared, conducted and validated as described in commonly owned PCT/US2006/022197 and in O'Boyle et. al. Antimicrob Agents Chemother. April 2005;49(4): 1346-53.
HCV 1b-377-neo replicon cells were used to test the currently described compound series as well as cells resistant to compound A due to a Y2065H mutation in NS5A (described in application PCT/US2006/022197). The compounds tested were determined to have more than 10-fold less inhibitory activity on cells resistant to compound A than wild-type cells indicating a related mechanism of action between the two compound series. Thus, the compounds of the present disclosure can be effective to inhibit the function of the HCV NS5A protein and are understood to be as effective in combinations as previously described in application PCT/US2006/022197 and commonly owned WO/04014852. Further, the compounds of the present disclosure can be effective against the HCV 1b genotype. It should also be understood that the compounds of the present disclosure can inhibit multiple genotypes of HCV. […] In one embodiment compounds of the present disclosure are active against the 1a, 1b, 2a, 2b, 3a, 4a, and 5a genotypes.

Row | Compound | EC50 [nM]
1 | CN(C)[C@@H](C(=O)N1CCC[C@H]1c1ncc(-c2ccc(-c3ccc(-c4cnc([C@@H]5CCCN5C(=O)[C@@H](c5ccccc5)N(C)C)[nH]4)cc3)cc2)[nH]1)c1ccccc1 [Example 1, (1R,1′R)-2,2′-(4,4′-biphenyldiylbis(1H-imidazole-5,2-diyl(2S)-2,1-pyrrolidinediyl))bis(N,N-dimethyl-2-oxo-1-phenylethanamine)] | 0.01 to 0.999
2 | COC(=O)N[C@@H](C(=O)N1CCC[C@H]1c1ncc(-c2ccc(-c3ncc(-c4cnc([C@@H]5CCCN5C(=O)Cc5cccnc5)[nH]4)cn3)cc2)[nH]1)c1ccccc1 [Example 152j-3, methyl ((1R)-2-oxo-1-phenyl-2-((2S)-2-(5-(4-(5-(2-((2S)-1-(3-pyridinylacetyl)-2-pyrrolidinyl)-1H-imidazol-5-yl)-2-pyrimidinyl)phenyl)-1H-imidazol-2-yl)-1-pyrrolidinyl)ethyl)car-bamate] | 0.01 to 0.999
3 | O=C([C@H](O)c1ccccc1)N1CCC[C@H]1c1ncc(-c2ccc(-c3ccc(-c4cnc([C@@H]5CCCN5C(=O)[C@H](O)c5ccccc5)[nH]4)cn3)cc2)[nH]1 [Example 133, (1R)-2-((2S)-2-(5-(6-(4-(2-((2S)-1-((2R)-2-hydroxy-2-phenylacetyl)-2-pyrrolidinyl)-1H-imidazol-5-yl)phenyl)-3-pyridinyl)-1H-imidazol-2-yl)-1-pyrrolidinyl)-2-oxo-1-phenylethanol] | 1 to 99
4 | C[C@@H](c1ncc(-c2ccc(-c3ccc(-c4cnc([C@H](C)N(C)C(=O)[C@@H](c5ccccc5)N5CCCCC5)[nH]4)cc3)cc2)[nH]1)N(C)C(=O)[C@@H](c1ccccc1)N1CCCCC1 [Example 24-18-3, (2R,2′R)-N,N′-(4,4′-biphenyl-diylbis(1H-imidazole-5,2-diyl(1S)-1,1-ethane-diyl))bis(N-meth-yl-2-phenyl-2-(1-piperi-dinyl)acet-amide)] | 0.01 to 0.999
5 | COC(=O)N[C@@H](C(=O)N(C)[C@@H](C)c1ncc(-c2ccc(-c3ccc(-c4cnc([C@@H]5CCCN5C(=O)[C@H](NC(=O)OC)c5ccccc5)[nH]4)cc3)cc2)[nH]1)c1ccccc1 [Example 24-18-4, methyl ((1R)-2-((2S)-2-(5-(4′-(2-((1S)-1-(((2R)-2-((methoxy-carbonyl)a-mino)-2-phenyl-acetyl)(meth-yl)ami-no)ethyl)-1H-imidazol-5-yl)-4-bi-phenylyl)-1H-imidazol-2-yl)-1-pyrrolidi-nyl)-2-oxo-1-phenyl-ethyl)carba-mate] | 0.01 to 0.999
6 | COC(=O)N[C@@H](C(=O)N1CCC[C@H]1c1ncc(-c2ccc(-c3ccc(-c4cnc([C@@H]5CCCN5C(=O)N5CCOCC5)[nH]4)cn3)cc2)[nH]1)c1ccccc1 [Example 144, methyl((1R)-2-((2S)-2-(5-(4-(5-(2-((2S)-1-(4-morpholinylcarbonyl)-2-pyrrolidinyl)-1H-imidazol-5-yl)-2-pyridinyl)phenyl)-1H-imidazol-2-yl)-1-pyrrolidinyl)-2-oxo-1-phenylethyl)carbamate] | 0.01 to 0.999
7 | COC(=O)N[C@H](C(=O)N1CCCC1c1ncc(-c2cc(C)c(-c3c(C)cc(-c4cnc([C@@H]5CCCN5C(=O)[C@@H](NC(=O)OC)C(C)C)[nH]4)cc3C)c(C)c2)[nH]1)C(C)C (stereo partly shown) [Example F71] | 0.01 to 0.999
8 | C[C@@H](c1ncc(-c2ccc(-c3ncc(-c4cnc([C@@H]5CCCN5C(=O)[C@@H](c5ccccc5)N5CCCCC5)[nH]4)cn3)cc2)[nH]1)N(C)C(=O)[C@@H](c1ccccc1)N1CCCCC1 [Example 152j-6, (2R)-N-methyl-2-phenyl-N-((1S)-1-(4-(4-(5-(2-((2S)-1-((2R)-2-phenyl-2-(1-piperidinyl)acetyl)-2-pyrrolidinyl)-1H-imidazol-5-yl)-2-pyrimidinyl)phenyl)-1H-imidazol-2-yl)ethyl)-2-(1-piperidinyl)acetamide] | 0.01 to 0.999
9 | COC(=O)N[C@H](C(=O)N1CCC[C@H]1c1ncc(-c2ccc(-c3ccc(-c4cnc([C@@H]5CCCN5C(=O)[C@@H](Nc5noc(N)n5)C(C)C)[nH]4)cc3)cc2)[nH]1)C(C)C [cj-16, methyl((1S)-1-(((2S)-2-(5-(4′-(2-((2S)-1-(N-(5-amino-1,2,4-oxadiazol-3-yl)-L-valyl)-2-pyrrolidinyl)-1H-imidazol-5-yl)-4-biphenylyl)-1H-imidazol-2-yl)-1-pyrrolidinyl)carbonyl)-2-methylpropyl)carbamate] | 0.01 to 0.999
10 | CN(C)[C@@H](C(=O)N1CCC[C@H]1c1ncc(-c2ccc(-c3ccc(-c4cnc([C@@H]5CCCN5C(=O)[C@@H](c5ccccc5)N(C)C)[nH]4)cc3C(F)(F)F)cc2)[nH]1)c1ccccc1 [Example 130, (1R,1′R)-2,2′-((2-(trifluoromethyl)-4,4′-biphenyldiyl)bis(1H-imidazole-5,2-diyl(2S)-2,1-pyrrolidinediyl))bis(N,N-dimethyl-2-oxo-1-phenylethanamine)] | 0.01 to 0.999
11 | COC(=O)N[C@H](C(=O)N1CCC[C@H]1c1nc(-c2cnc(-c3ccc(-c4cnc([C@@H]5CCCN5C(=O)[C@@H](NC(=O)OC)C(C)C)[nH]4)cc3)nc2)c[nH]1)C(C)C [Example D74, methyl ((1S)-1-(((2S)-2-(5-(2-(4-(2-((2S)-1-((2S)-2-((methoxy-carbonyl)amino)-3-methyl-butanoyl)-2-pyrroli-dinyl)-1H-imidazol-5-yl)phenyl)-5-pyrimi-dinyl)-1H-imida-zol-2-yl)-1-pyrroli-dinyl)carbon-yl)-2-methylpro-pyl)carba-mate] | 0.01 to 0.999
12 | COC(=O)N[C@@H](C(=O)N(C)[C@@H](C)c1ncc(-c2ccc(-c3ccc(-c4cnc([C@@H]5CCCN5C(=O)[C@@H](c5ccccc5)N(C)C)[nH]4)cc3)cc2)[nH]1)c1ccccc1 [Example 131.1-1, methyl((1R)-2-(((1S)-1-(5-(4′-(2-((2S)-1-((2R)-2-(dimethylamino)-2-phenylacetyl)-2-pyrrolidinyl)-1H-imidazol-5-yl)-4-biphenylyl)-1H-imidazol-2-yl)ethyl)(methyl)amino)-2-oxo-1-phenylethyl)carbamate] | 0.01 to 0.999
13 | COC(=O)N[C@@H](C(=O)N[C@@H](C)c1ncc(-c2ccc(-c3ccc(-c4cnc([C@H](C)NC(=O)[C@H](NC(=O)OC)c5ccccc5)[nH]4)cn3)nc2)[nH]1)c1ccccc1 [Example 153c-7, dimethyl (2,2′-bipyridine-5,5′-diylbis (1H-imidazole-5,2-diyl (1S)-1,1-ethanediyl-imino((1R)-2-oxo-1-phenyl-2,1-ethane-diyl)))biscarba-mate] | 1 to 99
14 | COC(=O)N[C@@H](C(=O)N1CCC[C@H]1c1ncc(-c2ccc(-c3ncc(-c4cnc([C@@H]5CCCN5C(=O)[C@@H](c5ccccc5)N5CCCCC5)[nH]4)cn3)cc2)[nH]1)c1ccccc1 [Example 152l-3, methyl ((1R)-2-oxo-1-phe-nyl-2-((2S)-2-(4-(4-(5-(2-((2S)-1-((2R)-2-phenyl-2-(1-piperidinyl)acetyl)-2-pyrrolidinyl)-1H-imidazol-5-yl)-2-pyrimi-dinyl)phenyl)-1H-imidazol-2-yl)-1-pyrroli-dinyl)ethyl)carba-mate] | 0.01 to 0.999
15 | COC(=O)N[C@@H](C)C(=O)N1CCC[C@H]1c1nc(-c2cnc(-c3ccc(-c4cnc([C@@H]5CCCN5C(=O)[C@H](C)NC(=O)OC)[nH]4)c(F)c3)nc2)c[nH]1 [Example D67, methyl ((1S)-2-((2S)-2-(5-(2-flouro-4-(5-(2-((2S)-1-(N-(methoxy-carbonyl)-L-alanyl)-2-pyrroli-dinyl)-1H-imida-zol-5-yl)-2-pyrimi-dinyl)phenyl)-1H-imida-zol-2-yl)-1-pyrrolidinyl)-1-methyl-2-oxoeth-yl)carbamate] | 0.01 to 0.999
16 | CN(C)[C@@H](C(=O)N1CSC[C@H]1c1ncc(-c2ccc(-c3ccc(-c4cnc([C@@H]5CSCN5C(=O)[C@@H](c5ccccc5)N(C)C)[nH]4)cc3)cc2)[nH]1)c1ccccc1 [Example 148, (1R,1′R)-2,2′-(4,4′-biphenyldiylbis(1H-imidazole-5,2-diyl(4R)-1,3-thiazolidine-4,3-diyl))bis(N,N-dimethyl-2-oxo-1-phenylethanamine)] | 1 to 99
17 | CN(C)[C@@H](C(=O)N1CCC[C@H]1c1ncc(-c2ccc(-c3ccc(-c4cnc([C@@H]5CCCN5C(=O)[C@@H](c5ccccc5)N(C)C)[nH]4)nn3)cc2)[nH]1)c1ccccc1 [Example 152j-9, (1R)-2-((2S)-2-(5-(6-(4-(2-((2S)-1-((2R)-2-(dimethylamino)-2-phenylacetyl)-2-pyrrolidinyl)-1H-imidazol-5-yl)phenyl)-3-pyridazinyl)-1H-imidazol-2-yl)-1-pyrrolidinyl)-N,N-dimethyl-2-oxo-1-phenylethanamine] | 1 to 99
18 | COC(=O)N[C@H](C(=O)N1CCC[C@H]1c1ncc(-c2ccc(-c3ccc(-c4cnc([C@@H]5CCCN5C(=O)[C@@H](NC(=O)OC)C(C)C)[nH]4)cc3CO)cc2)[nH]1)C(C)C [Example M119, methyl((1S)-1-(((2S)-2-(5-(2-(hydroxymethyl)-4′-(2-((2S)-1-((2S)-2-((methoxycarbonyl)amino)-3-methylbutanoyl)-2-pyrrolidinyl)-1H-imidazol-5-yl)-4-biphenylyl)-1H-imidazol-2-yl)-1-pyrrolidinyl)carbonyl)-2-methylpropyl)carbamate] | 100 to 999
19 | Cc1cc(-c2cnc([C@@H]3CCCN3C(=O)[C@@H](c3ccccc3)N(C)C)[nH]2)ccc1-c1ccc(-c2cnc([C@@H]3CCCN3C(=O)[C@@H](c3ccccc3)N(C)C)[nH]2)cc1C [Example 121, (1R,1′R)-2,2′-((2,2′-dimethyl-4,4′-biphenyldiyl)bis(1H-imidazole-5,2-diyl(2S)-2,1-pyrrolidinediyl))bis(N,N-dimethyl-2-oxo-1-phenylethanamine)] | 0.01 to 0.999
